# In patent EP4509511A1, “SUBSTITUTED SPIRO-ISOXAZOLINYL LACTAMS, SALTS THEREOF AND THEIR USE AS HERBICIDALLY ACTIVE SUBSTANCES” (Bayer Aktiengesellschaft, priority 2023, dated 2025):
# What was measured:
# [1] = tested on: ABUTH; test: Herbicidal post-emergence action - Part II; type: in vivo, Abutilon theophrasti
# Source text: (§1) Seeds of mono- and dicotyledonous weed plants and crop plants were sown, in plastic or organic planting pots, in sandy loam, covered with soil and grown in a greenhouse under controlled growth conditions. 2 to 3 weeks after sowing, the test plants were sprayed in the single-leaf stage. The compounds according to the invention, formulated in form of wettable powders (WP) or as emulsifiable concentrates (EC), were sprayed onto the green plant parts as aqueous suspension or emulsion, with the addition of 0.5% of an additive, at an application rate of 600 1 of water/ha (converted). The test plants were placed in the greenhouse for ca. 3 weeks under optimum growth conditions, and then the effect of the preparations was assessed visually in comparison with untreated controls (herbicidal effect in percent (%): 100% effect = plants have died off, 0% effect = as control plants). Tables E1 to E10 below show the effects of selected compounds of the general formula (I) according to table 1 on various harmful plants and an application rate corresponding to 320 g/ha or below obtained by the experimental procedure mentioned above. Table E1a: post-emergence activity at 5g/ha against ABUTH in %
# [2] = tested on: AMARE; test: Herbicidal post-emergence action - Part II; type: in vivo, Amaranthus retroflexus
# Source text: as §1
# [3] = tested on: ECHCG; test: Herbicidal post-emergence action - Part II; type: in vivo, Echinochloa crus-galli; details: 20 g/ha; Table E3a
# Source text: as §1
# [4] = tested on: MATIN; test: Herbicidal post-emergence action - Part II; type: in vivo, Matricaria inodora
# Source text: as §1
# [5] = tested on: PHBPU; test: Herbicidal post-emergence action - Part II; type: in vivo, Pharbitis purpurea
# Source text: as §1
# [6] = tested on: SETVI; test: Herbicidal post-emergence action - Part II; type: in vivo, Setaria viridis
# Source text: as §1
# [7] = tested on: VERPE; test: Herbicidal post-emergence action - Part II; type: in vivo, Veronica persica
# Source text: as §1
# [8] = tested on: VIOTR; test: Herbicidal post-emergence action - Part II; type: in vivo, Viola tricolor
# Source text: as §1
# [9] = tested on: ZEAMX; test: Post-emergence effects on crop plants; type: in vivo, Zea mays; details: crop plant
# Source text: as §1, with “F1” for “E1”, “F5” for “E10”, “crop” for “harmful”, “[…]:” for “E1a:”, “ZEAMX” for “ABUTH”
# [10] = tested on: TRZAS; test: Post-emergence effects on crop plants; type: in vivo, Triticum aestivum; details: crop plant
# Source text: as §1, with “F1” for “E1”, “F5” for “E10”, “crop” for “harmful”, “[…]:” for “E1a:”, “ZEAMX” for “ABUTH”
# [11] = tested on: POLCO; test: Herbicidal post-emergence action - Part II; type: in vivo, Polygonum convolvulus; details: 20 g/ha; Table E6
# Source text: as §1
# [12] = tested on: GLXMA; test: Post-emergence effects on crop plants; type: in vivo, Glycine max; details: crop plant
# Source text: as §1, with “F1” for “E1”, “F5” for “E10”, “crop” for “harmful”, “[…]:” for “E1a:”, “ZEAMX” for “ABUTH”
# [13] = tested on: ECHCG; test: Herbicidal pre-emergence action - Part I; type: in vivo, Echinochloa crus-galli; details: 1280 g/ha, visual grading after ca. 3 weeks vs untreated controls
# Source text: (§2) Seeds of mono- and dicotyledonous weed plants were sown in plastic pots (double sowings with one species of mono- and one species of dicotyledonous weed plants per pot), in sandy loam, and covered with soil. The compounds according to the invention, formulated in the form of wettable powders (WP) or as emulsifiable concentrates (EC), were applied to the surface of the covering soil as aqueous suspension or emulsion, with the addition of 0.5% of an additive, at an application rate of 600 1 of water per hectare (converted). Following treatment, the pots were placed in a greenhouse and kept under optimum growth conditions for the test plants. The visual grading of the damage to the test plants was carried out after ca. 3 weeks in comparison to untreated controls (herbicidaleffectinpercent(%):100%effect=plantshavediedoff,0%effect=ascontrolplants). [formula]
# (§3) Tables A1 to A12, below, show the effects of selected compounds of the general formula (I) according to table 1 on various harmful plants and an application rate corresponding to 1280 g/ha or below obtained by the experimental procedure mentioned above. Table A1: pre-emergence activity at 1280g/ha against ABUTH in %
# [14] = tested on: STEME; test: Herbicidal pre-emergence action - Part I; type: in vivo, Stellaria media; details: 1280 g/ha, visual grading after ca. 3 weeks vs untreated controls
# Source text: as §2, §3
# [15] = tested on: AMARE; test: Herbicidal pre-emergence action - Part I; type: in vivo, Amaranthus retroflexus; details: 1280 g/ha, visual grading after ca. 3 weeks vs untreated controls
# Source text: as §2, §3
# [16] = tested on: ABUTH; test: Herbicidal post-emergence action - Part I; type: in vivo, Abutilon theophrasti; details: 320 g/ha, one-leaf stage, rated visually after about 3 weeks vs untreated controls
# Procedure: (§4) Seeds of mono- and dicotyledonous weed plants were placed in plastic pots in sandy loam soil (doubly sown with in each case one species of mono- or dicotyledonous weed plants per pot), covered with soil and cultivated in a greenhouse under controlled growth conditions. 2 to 3 weeks after sowing, the test plants were treated at the one-leaf stage. The compounds of the invention, formulated in the form of wettable powders (WP) or as emulsion concentrates (EC), were applied onto the green parts of the plants as aqueous suspension or emulsion with addition of 0.5% additive at a water application rate of 600 liters per hectare (converted). After the test plants had been kept in the greenhouse under optimum growth conditions for about 3 weeks, the activity of the preparations was rated visually in comparison to untreated controls. For example, 100% activity = the plants have died, 0% activity = like control plants. Tables B1 to B12, below, show the effects of selected compounds of the general formula (I) according to table 1 on various harmful plants and an application rate corresponding to 1280 g/ha or below obtained by the experimental procedure mentioned above. Table B1a: post-emergence activity at 1280g/ha against ABUTH in %
# [17] = tested on: MATIN; test: Herbicidal post-emergence action - Part I; type: in vivo, Matricaria inodora; details: one-leaf stage, rated visually after about 3 weeks vs untreated controls
# Procedure: as §4
# [18] = tested on: STEME; test: Herbicidal post-emergence action - Part I; type: in vivo, Stellaria media; details: one-leaf stage, rated visually after about 3 weeks vs untreated controls
# Procedure: as §4
# [19] = tested on: AMARE; test: Herbicidal post-emergence action - Part I; type: in vivo, Amaranthus retroflexus; details: one-leaf stage, rated visually after about 3 weeks vs untreated controls
# Procedure: as §4
# [20] = tested on: KCHSC; test: Herbicidal post-emergence action - Part I; type: in vivo, Kochia scoparia; details: 1280 g/ha, one-leaf stage, rated visually after about 3 weeks vs untreated controls
# Procedure: as §4
# [21] = tested on: VERPE; test: Herbicidal post-emergence action - Part I; type: in vivo, Veronica persica; details: 1280 g/ha, one-leaf stage, rated visually after about 3 weeks vs untreated controls
# Procedure: as §4
Compound,"post-emergence activity against ABUTH ([1]; 5 g/ha, Table E1a) [%]","post-emergence activity against ABUTH ([1]; 20 g/ha, Table E1b) [%]","post-emergence activity against AMARE ([2]; 5 g/ha, Table E2a) [%]","post-emergence activity against AMARE ([2]; 20 g/ha, Table E2b) [%]","post-emergence activity against MATIN ([4]; 20 g/ha, Table E4b) [%]","post-emergence activity against PHBPU ([5]; 5 g/ha, Table E5a) [%]","post-emergence activity against PHBPU ([5]; 20 g/ha, Table E5b) [%]","post-emergence activity against SETVI ([6]; 20 g/ha, Table E7b) [%]","post-emergence activity against VERPE ([7]; 5 g/ha, Table E8a) [%]","post-emergence activity against VERPE ([7]; 20 g/ha, Table E8b) [%]","post-emergence activity against VIOTR ([8]; 5 g/ha, Table E9a) [%]","post-emergence activity against VIOTR ([8]; 20 g/ha, Table E9b) [%]","post-emergence activity against TRZAS ([10]; 5 g/ha, Table F2a) [%]","post-emergence activity against TRZAS ([10]; 20 g/ha, Table F2b) [%]",post-emergence activity against POLCO [11] [%],"post-emergence activity against ZEAMX ([9]; 5 g/ha, Table F1a) [%]",also measured
Cn1c(C(F)(F)F)cc(=O)n(-c2cc(C3=NOC4(CCN(Cc5ccccc5Cl)C4=O)C3)c(Cl)cc2F)c1=O (racemic) [Compound I-30],100,100,100,100,100,100,100,100,90,100,100,100,20,20,–,–,"post-emergence activity against ECHCG [3]: 100%; post-emergence activity against ZEAMX ([9]; 20 g/ha, Table F1b): 20%"
Cn1c(C(F)(F)F)cc(=O)n(-c2cc(C3=NOC4(CCCN(Cc5ccccc5F)C4=O)C3)c(Cl)cc2F)c1=O (racemic) [Compound I-7],100,100,100,100,80,100,100,100,100,100,100,100,10,20,100,20,"post-emergence activity against MATIN ([4]; 5 g/ha, Table E4a): 80%"
CN1CCCC2(CC(c3cc(-n4c(=O)cc(C(F)(F)F)n(C)c4=O)c(F)cc3Cl)=NO2)C1=O (racemic) [Compound I-56],100,100,100,100,100,90,100,90,80,100,100,100,20,20,100,–,–
Cn1c(C(F)(F)F)cc(=O)n(-c2cc(C3=NOC4(CCCN(Cc5c(F)cccc5F)C4=O)C3)c(Cl)cc2F)c1=O (racemic) [Compound I-6],100,100,100,100,–,100,100,100,80,80,100,100,20,–,–,10,"post-emergence activity against ECHCG [3]: 80%; post-emergence activity against ZEAMX ([9]; 20 g/ha, Table F1b): 10%"
Cn1c(C(F)(F)F)cc(=O)n(-c2cc(C3=NOC4(CCN(Cc5c(F)cccc5F)C4=O)C3)c(Cl)cc2F)c1=O (racemic) [Compound I-29],100,100,100,100,100,–,100,80,100,100,100,100,20,20,100,20,"post-emergence activity against SETVI ([6]; 5 g/ha, Table E7a): 80%; post-emergence activity against GLXMA ([12]; 5 g/ha, Table F4a): 10%; post-emergence activity against GLXMA ([12]; 20 g/ha, Table F4b): 20%"
COc1ncccc1C1=NOC2(CCN(Cc3cccc(F)c3F)C2=O)C1 (racemic) [Compound I-42],–,–,–,–,–,–,–,–,–,–,–,–,–,–,–,–,pre-emergence activity at 1280g/ha against ECHCG in % [13]: 90%; pre-emergence activity at 1280g/ha against STEME in % [14]: 90%; pre-emergence activity at 1280g/ha against AMARE in % [15]: 90%; post-emergence activity at 320g/ha against ABUTH in % [16]: 90%; post-emergence activity at 320g/ha against MATIN in % ([17]; 320 g/ha): 100%; post-emergence activity at 1280g/ha against MATIN in % ([17]; 1280 g/ha): 100%; post-emergence activity at 320g/ha against STEME in % ([18]; 320 g/ha): 100%; post-emergence activity at 1280g/ha against STEME in % ([18]; 1280 g/ha): 100%; post-emergence activity at 320g/ha against AMARE in % ([19]; 320 g/ha): 90%; post-emergence activity at 1280g/ha against AMARE in % ([19]; 1280 g/ha): 90%; post-emergence activity at 1280g/ha against KCHSC in % [20]: 90%; post-emergence activity at 1280g/ha against VERPE in % [21]: 90%
Cn1c(C(F)(F)F)cc(=O)n(-c2cc(C3=NOC4(CCNC4=O)C3)c(Cl)cc2F)c1=O (racemic) [Compound I-71],80,100,–,100,80,–,80,–,–,80,80,80,0,–,80,20,–
